Experimental data as given in patent US8318798B2, “Therapeutic agent for neurodegenerative disease” (priority 2005, dated 2012).

How the values were obtained:
DJ-1 protein [1] = target: T1, DJ-1 protein (Homo sapiens, UniProt Q99497); assay: Binding to DJ-1 protein by AffinixQ quartz oscillator frequency change; conditions: compound fixed on sensor chip; DJ-1 protein vs BSA added (FIG. 11)
T1 sequence (Q99497 1-189): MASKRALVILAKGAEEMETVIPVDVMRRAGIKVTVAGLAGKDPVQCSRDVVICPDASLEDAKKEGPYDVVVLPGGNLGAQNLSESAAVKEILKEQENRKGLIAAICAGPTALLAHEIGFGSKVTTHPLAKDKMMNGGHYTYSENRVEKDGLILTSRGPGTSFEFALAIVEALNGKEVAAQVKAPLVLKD
Text: The AffinixQ is an instrument for quantifying interaction between biomolecules at the order of nanograms by changes in frequency of the crystal oscillator. It utilizes the proportional relationship between change in frequency of the quartz oscillator and the weight of the adherings on the surface of the quartz oscillator.
The compound was fixed on top of the sensor chip, which is the oscillator, using an amino coupling reagent. The sensor chip onto which the compound had been fixed was immersed in a measurement vessel filled with 8 mL of PBS (phosphate buffer), and held until the frequency became constant. Following this, 8 μL of 1 mg/mL DJ-1 protein or BSA (bovine serum albumin) was added to the measurement vessel.

DJ-1 protein [2] = target: T1, DJ-1 protein; assay: Suppression of transition of DJ-1 to oxidized form (H2O2 treatment, isoelectric focusing); type: biochemical; conditions: 0.2 mM or 2 mM H2O2, room temperature 1 hour; isoelectric focusing (FIG. 12)
Protocol: In this example, it was confirmed that compound 1 and compound 5 suppressed the transition of DJ-1 to an oxidized form.
0.5 mg of purified DJ-1 protein was dissolved in 1 mL of PBS. 10 μL of 1 mM compound 1, 5, or 7 was added to 500 μL of this DJ-1 protein solution, and rotated at 4° C. for 1 hour. Subsequently, 0.4 or 4 mM hydrogen peroxide (H2O2) was added thereto, the mixture was allowed to stand at room temperature for 1 hour then the hydrogen peroxide concentration became 0.2 mM or 2 mM. Further, dialysis was carried out 3 times with PBS for a total of 4.5 hours, followed by an isoelectric focusing 0.5 μg of the DJ-1 protein . The reagents used in the isoelectric focusing were as follows. • Gel solution for isoelectric focusing: 9.2 M Urea, 2% NP-40, 4% acrylamide, 1% Ampholine (pH 5-8; Amersham Bioscience), 1% Ampholine (pH 3-10; Amersham Bioscience) • Sample Buffer: 5 M Urea, 2 M ThioUrea, 2% NP-40, 5% Glycerin, 5% 2-mercaptoethanol, 1.6% Ampholine (pH 5-8), 0.4% Ampholine (pH 3.5-10) • Protection solution: 8 M Urea, 0.8% Ampholine (pH 5-8), 0.2% • Ampholine (pH 3.5-10) • Electrophoresis Buffer+electrode: 0.02 M Phosphoric acid • −electrode: 0.02 M NaOH • Towbin: 25 mM Tris, 192 mM Glycine

mitochondrial complex 1 = assay: Maintenance of mitochondrial Complex 1 activity in 6-hydroxydopamine-treated SH-SY5Y cells; type: cell-based, human; conditions: compound 1 μM, 24 h before 50 μM 6-hydroxydopamine, 6 h; compared with control (FIG. 13)
Protocol: In this example, the effect of compounds 1, 5, and 8 in maintaining the activity of mitochondrial complex 1 was examined.
6-Hydroxydopamine induces oxidative stress by degrading the enzymic activity of Complex 1 and thereby causing a functional disorder. It is considered that the compounds identified here would suppress neuronal death due to oxidative stress by preventing deactivation of complex 1. Therefore, changes in activity of complex 1 resulting from addition of the compound was measured.
SH-SY5Y human neurons were plated onto a 10 cm dish and cultured to 80% confluency. Compounds 1, 5, and 8 individually were added at the compound concentration of 1 μM, or sterile water was added. 24 hours after the addition of the compound or sterile water, 6-hydroxydopamine (PBS solvent) was added at a 6-hydroxydopamine concentration of 50 μM, or the same amount of PBS (containing no 6-hydroxydopamine) was added. 6 hours after the addition of 6-hydroxydopamine, the cells were collected. […] After quantifying the protein, 100 μg of the mitochondrial protein was added to a cuvette filled with a reaction buffer, and the total amount was made up to 480 μL. After incubation at 37° C. for 3 minutes, 20 μL of 5 mM NADH was added to the cuvette, and decrease in absorbance at 340 nm was monitored for 4 minutes using an absorptiometer. […]

dopamine neurons = assay: TH staining of dopamine neurons in rat midbrain substantia nigra after 6-OHDA injection; type: in vivo; conditions: 1 mM compound injected simultaneously with 6 mM 6-OHDA (FIG. 16)
Protocol: The midbrain substantia nigra (SNpc) was dissected out and fixed in a 100 mM phosphate buffer containing 4% of paraformaldehyde for 2 days, and then submerged in 100 mM phosphate buffer (containing 15% of sucrose and 0.1% of sodium azide). A 20 μm thick slices were prepared using Cryostat, and submerged in a 100 mM phosphate buffer containing 0.3% Triton X-100 (PBS-T).
These brain slices were reacted with anti-tyrosine hydroxylase (TH: a dopamine-biosynthetic enzyme and marker for dopamine neurons, manufactured by Sigma, 1:20,000 dilution) at 4° C. for 3 days, then washed, and reacted with a biotinylated anti-mouse IgG antibody (1:2,000 dilution) at room temperature for 2 hours. Subsequently, avidin peroxidase coloration was carried out using an ABC kit (Vector Laboratories) at room temperature for 1 hour. After washing several times with PBS-T, coloration was carried out by nickel ammonium-containing 3,3′-diaminobenzidine (DAB).
In the left substantia nigra into which only 6-OHDA was injected, TH staining was not observed and thus dopaminergic neuron death was observed. In the right substantia nigra, which was not injected with 6-OHDA, live dopamine neurons were observed (FIG. 16 (1)).

SH-SY5Y human neurons = assay: Suppression of 6-hydroxydopamine-induced cell death of SH-SY5Y human neurons (Cell Counting Kit-8 / MTT assay); type: cell-based; conditions: compound 1 μM, 24 h before 100 μM 6-hydroxydopamine, 40 h; compared with control (FIG. 9)
Protocol: In this example, the effect of compounds 1 to 8 in suppressing cell death of SH-SY5Y human neurons was examined.
SH-SY5Y human neurons ([…], USA) were plated on a 96-well plate, and cultured to 80% confluency.
Compounds 1 to 8 in sterile aqueous solutions were individually added thereto at a sample concentration of 1 μM, or sterile water was added as a control.
24 hours after the addition of compounds 1 to 8 or sterile water, 6-hydroxydopamine (PBS solvent) (Wako Pure Chemical Industries, Ltd.) was added to each at a 6-hydroxydopamine concentration of 100 μM, or the same amount of PBS (containing no 6-hydroxydopamine) was added. Furthermore, 40 hours after the addition of 6-hydroxydopamine, Cell Counting Kit-8 was added for carrying out an MTT assay.
After 3 hours, a viable cell count was measured by measuring the absorbance at wavelength of 450 nm. For each of compounds 1 to 8 and the control, the viability was obtained from ‘(the viable cell count when 6-hydroxydopamine was added)/(the viable cell count when no 6-hydroxydopamine was added)’.
Compared with the control and compounds 7 and 8, it can be seen that the addition of any one of compounds 1 to 6 enhances the viability.

[3] = system: rats injected with 6-hydroxydopamine (6-OHDA); assay: Methamphetamine-induced rotation of rats injected with 6-OHDA into midbrain left substantia nigra; type: in vivo, rat; conditions: 1 mM compound injected simultaneously with 6 mM 6-OHDA into left substantia nigra; methamphetamine after 9 weeks
Protocol: In this example, compound 1, 5, or 8 was injected into rat midbrain left substantia nigra and the effect thereof was examined. • (1) Either 6 mM of 6-hydroxydopamine (6-OHDA) alone or mixtures of 6 mM of 6-OHDA and 1 mM of each compound was injected into the midbrain left substantia nigra (4.8 mm×1.8 mm, 7.8 mm depth) of rats (Wister rat, male, 250 g). Where the rat was injected with 6 mM of 6-hydroxydopamine (6-OHDA) in midbrain left substantia nigra, the right-side substantia nigra was intact but in the left-side oxidative stress induced the death of dopamine neurons, and the rat rotate in a clockwise direction due to the imbalanced amount of acting dopamine, showing a behavioral abnormality characteristic of Parkinson's disease patients.
After 9 weeks, the rats were injected with methamphetamine (Dainippon Pharma Co., Ltd.), which causes a dopamine release, leading to a release of large amount of dopamine from dopamine neurons into the striatum. Because of the imbalance in the amounts of released dopamine between the left and right substantia nigra the rats started to rotate in a clockwise direction. The rats were placed in a rotameter, and the number of rotations was measured. The total number of rotations over 60 minutes is shown in FIG. 14, and the number of rotations at every 5 minutes over time is shown in FIG. 15. […]

Row | Compound | binding to DJ-1 protein (frequency change) (DJ-1 protein [1]) | dopaminergic neuronal death in left substantia nigra (TH staining) (dopamine neurons) | further results
1 | CC1(C)OC2C(=O)O[C@@H](n3cnc4c(N)ncnc43)C2O1 (some centres unmarked) [compound 1] | bind to DJ-1 protein | neuronal death was considerably suppressed | transition of DJ-1 protein to an oxidized form (DJ-1 protein [2]): suppressed the transition of DJ-1 protein to an oxidized form; Complex 1 activity (mitochondrial complex 1): Complex 1 activity was maintained
2 | CS(=O)(=O)O[C@H]1CO[C@@H](Cn2cnc3c(N)ncnc32)C1O (some centres unmarked) [compound 2] | bind to DJ-1 protein | – | –
3 | CC(=O)O[C@H](CO)[C@H](O)C(O)Cn1cnc2c(N)ncnc21 (some centres unmarked) [compound 4] | bind to DJ-1 protein | – | –
4 | COc1ccc(CC(=O)NCCc2cc(OC)c3c(c2)OCO3)cc1OCc1ccccc1 [compound 5] | – | neuronal death was considerably suppressed | transition of DJ-1 protein to an oxidized form (DJ-1 protein [2]): suppressed the transition of DJ-1 protein to an oxidized form; Complex 1 activity (mitochondrial complex 1): Complex 1 activity was maintained
5 | NC(=O)C(CS(N)(=O)=O)NC(=O)C(Cc1ccccc1)NC(=O)CNC(=O)OCc1ccccc1 (centres unmarked) [compound 6] | bind to DJ-1 protein | – | –
6 | CC1(C)OC2C(O1)[C@@H](CO)O[C@H]2n1cnc2c(NC(=O)C(C)(C)C)ncnc21 (some centres unmarked) [compound 7] | – | – | viability (effect in suppressing cell death) (SH-SY5Y human neurons): did not have such effects
7 | COCO[C@@H](/C=C/C(=O)OCc1ccccc1)[C@@H](CCO[Si](C)(C)C(C)(C)C)C(Cc1ccccc1)Cc1ccccc1 [compound 8] | – | did not have such effect | viability (effect in suppressing cell death) (SH-SY5Y human neurons): did not have such effects; effect on behavioral abnormality (number of rotations), in words [3]: did not show such effect
